This note sets out measurements from paper PMC5054527, “Mechanism of high affinity inhibition of the human urate transporter URAT1” (Scientific Reports, 2016).

Each structure is given as a SMILES string. Substitutions are numbered along the chain they refer to. Read-outs that look alike come from different tables or passages of the source.

One may read the IC50 as the concentration needed to halve the response being measured.

What all share (assay): URAT1 uric acid transport activity assay
Holding throughout (type): cell-based

Assay [1] has as its target T1, r-A21T rURAT1 point mutant (Rattus norvegicus, UniProt Q3ZAV1, A21T).
T1 construct: expressed in transfected cells; host or cells: HEK-293T
T1 sequence (Q3ZAV1 1-553 A21T): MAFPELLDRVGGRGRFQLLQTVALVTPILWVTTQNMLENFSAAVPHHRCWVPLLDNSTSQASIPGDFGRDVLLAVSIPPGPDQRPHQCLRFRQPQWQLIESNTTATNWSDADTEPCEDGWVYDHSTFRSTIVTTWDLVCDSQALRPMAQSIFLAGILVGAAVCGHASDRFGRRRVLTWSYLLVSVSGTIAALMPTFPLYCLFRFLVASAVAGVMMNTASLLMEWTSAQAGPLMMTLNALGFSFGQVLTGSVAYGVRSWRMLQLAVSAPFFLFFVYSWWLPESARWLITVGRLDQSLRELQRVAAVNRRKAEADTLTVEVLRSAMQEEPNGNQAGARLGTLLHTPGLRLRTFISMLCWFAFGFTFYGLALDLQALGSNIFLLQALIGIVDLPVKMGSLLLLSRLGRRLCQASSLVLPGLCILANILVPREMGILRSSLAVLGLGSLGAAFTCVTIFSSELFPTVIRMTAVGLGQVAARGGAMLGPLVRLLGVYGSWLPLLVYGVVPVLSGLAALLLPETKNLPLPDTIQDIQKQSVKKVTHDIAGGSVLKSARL
In a few lines: (§1)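 Rat URAT1 point or double mutants in pCMV6/neo were transiently transfected into cells and assayed the next day. Compounds were preincubated for 5 minutes, then 100 μM 14C-uric acid uptake was measured over 10 minutes in triplicate. IC50 came from four-parameter variable-slope nonlinear regression.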

For assay [2], the target named is T2, r-V22M rURAT1 point mutant (Rattus norvegicus, UniProt Q3ZAV1, V22M).
T2 sequence (Q3ZAV1 1-553 V22M): T1 sequence (Q3ZAV1 1-553 A21T) with T21A, V22M
The gist of the method: as §1

Assay [3] concerns the target T3, r-T32C rURAT1 point mutant (Rattus norvegicus, UniProt Q3ZAV1, T32C).
T3 sequence (Q3ZAV1 1-553 T32C): T1 sequence (Q3ZAV1 1-553 A21T) with T21A, T32C
In a few lines: as §1

As to `CCc1oc2ccccc2c1C(=O)c1cc(Br)c(O)c(Br)c1` [benzbromarone], the IC50 in assay [1] came to 22 ± 3.6 µM; in assay [2] it was 20 ± 2.7 µM; in assay [3], 24 ± 4 µM.

Consider `O=C(O)CSc1nnc(Br)n1-c1ccc(C2CC2)c2ccccc12` [lesinurad, 2-((5-bromo-4-(4-cyclopropylnaphthalen-1-yl)-4H-1,2,4-triazol-3-yl)thio)acetic acid], for which the half-maximal inhibitory concentration (IC50) in assay [1] (r-A21T, MES pH 5.5, 100 μM 14C-uric acid, read-out: IC50 (uric acid transport)) came to 71 ± 5.9 µM; in assay [2] (r-V22M, MES pH 5.5, 100 μM 14C-uric acid, read-out: IC50 (uric acid transport)), 74 ± 8.9 µM; in assay [3] (r-T32C, MES pH 5.5, 100 μM 14C-uric acid, read-out: IC50 (uric acid transport)), 73 ± 5.9 µM.

Consider `O=C1C(CC[S+]([O-])c2ccccc2)C(=O)N(c2ccccc2)N1c1ccccc1` (stereo not drawn) [sulfinpyrazone], for which the IC50 in assay [1] (r-A21T, HEPES pH 7.3, 100 μM 14C-uric acid, read-out: IC50 (uric acid transport)) amounted to 471 ± 81 µM; in assay [2] (r-V22M, HEPES pH 7.3, 100 μM 14C-uric acid, read-out: IC50 (uric acid transport)), 762 ± 177 µM; in assay [3] (r-T32C, HEPES pH 7.3, 100 μM 14C-uric acid, read-out: IC50 (uric acid transport)), 691 ± 98 µM.
